{"source": "patent US20250214973A1", "about": "“1,4,5-TRISUBSTITUTED-1,2,3-TRIAZOLES AND USES THEREOF” (UNIVERSITY OF PUERTO RICO, priority 2022, published 2025)", "key": {"MDA-MB-231 [1]": {"test_system": "MDA-MB-231", "assay": "Cell viability assay (MTT)", "assay_type": "cell-based", "settings": "Homo sapiens", "protocol": "Cells plated at equal density were treated at 500 nM of compounds. […]\n(§1) Cells plated at equal density were treated at 250 nM of 4c at 250 nM.\n(§2) Data from 3 biologic replicates each with 2 technical replicates. Four parameter dose-response curves generated using GraphPad Prism are shown.\nCell viability relative to vehicle (100%) is shown.\n(§3) […] Using CellTiter 96 Non-Radioactive Cell Proliferation Assay (Promega, Corp.) according to manufactures' instructions, formazan was used as an indicator of viable cells at an absorbance 570 nm in a Tecan Microplate Reader M100. Data was calculated as fold change from vehicle and fitted using the 4′parameter logic nonlinear regression model in GraphPad Prism software. (n=3 biologic replicates: with 3 technical replicates each).\nA range of compounds were tested by MTT assays for cell viability in MDA-MB-231 triple negative breast cancer (TNBC) cells and MDA-MB-435 HER2++ cancer cells."}, "Panc-1 [2]": {"test_system": "Panc-1", "assay": "Cell viability assay (MTT)", "assay_type": "cell-based", "settings": "Homo sapiens, 120 hours, 0-1000 nM", "protocol": "as §3"}, "[3]": {"test_system": "RAW264.7 macrophage cell line", "assay": "Wound healing assay", "assay_type": "cell-based, murine", "settings": "Mus musculus, read-out: inhibition of wound closure, RAW264.7", "protocol": "(§4) Mircrographs were digitally acquired at 0, 12, and 24 hours and the area of the wound quantified relative to the distance at time 0. n=3.\nMurine macrophage cell line, RAW264.7, plated at equal density were subjected to a scratch in the center and treated with 4c at 0, 150 nM, 250 nM, or 500 nM. Mircrographs were digitally acquired at 0, 12, and 24 hours and the area of the wound quantified relative to the distance at time 0. n=3."}, "Panc-1 [4]": {"test_system": "Panc-1", "assay": "Wound healing assay", "assay_type": "cell-based", "settings": "Homo sapiens, 24 hr, read-out: inhibition of Panc-1 cell migration", "protocol": "as §4\nPanc-1 cells plated at equal density were subjected to a scratch in the center and treated with 4c at 0, 150 nM, 250 nM, or 500 nM. Mircrographs were digitally acquired at 0, 12, and 24 hours and the area of the wound quantified relative to the distance at time 0. n=3."}, "MDA-MB-435 [5]": {"test_system": "MDA-MB-435", "assay": "Cell viability assay (MTT)", "assay_type": "cell-based, human", "protocol": "(§5) Cells plated at equal density were treated at 500 nM of compounds. After 72 hours, cell viability was measured by a MTT assay. n=3; * p<0.05, ** p<0.01, *** p<0.001.\nas §1, §2\n[…]. GI50 was calculated using Graph pad Prism.\nas §3\nA range of compounds were tested by MTT assays for cell viability in MDA-MB-231 triple negative breast cancer (TNBC) cells and MDA-MB-435 HER2++ cancer cells. […]."}, "MDA-MB-231 [6]": {"test_system": "MDA-MB-231", "assay": "Apoptosis assay, caspase 3/7 activity", "assay_type": "cell-based, human", "settings": "500 nM, 48 hours", "protocol": "(§6) Cells plated at equal density were treated at 500 nM of compounds. After 48 hours, caspase 3/7 activity was measured by luminescence. n=3; * p<0.05, ** p<0.01.\n(§7) Equal number of cells were seeded incubated with vehicle or compounds according to this disclosure at 250 or 500 nM for 48 hrs. Apoptosis was measured using a Caspase-Glo3/7 Luminescence Assay Kit as per manufacturer's instructions (Promega, Corp.). Briefly, Caspase-3/7 Glo reagent was added and incubated at room temperature for 60 min and Caspase-3/7 activities were determined by detecting luminescence using Tecan Microplate Reader M100. (n=3 biologic replicates: with 3 technical replicates each)."}, "MDA-MB-435 [7]": {"test_system": "MDA-MB-435", "assay": "Apoptosis assay, caspase 3/7 activity", "assay_type": "cell-based, human", "settings": "500 nM, 48 hours", "protocol": "as §6, §7"}, "MCF-7": {"test_system": "MCF-7", "assay": "Initial screening, SRB assay GI50", "assay_type": "cell-based", "settings": "Homo sapiens, MCF7, 48 hrs", "protocol": "(§8) For initial screening, the GIso of compounds 4a-4h in the cell lines MDA-MB-231, MDA-MB-435 and MCF-7 was determined via the SRB-assay for 48 hrs as follows:\n(§9) A stock solution of compounds was prepared at 50 mM in 100% DMSO. For cells preparation, a flask of 75 cm^2 or 25 cm^2 were used for 2.6×10^5 cells/mL or 1.44×10^5 cells/mL, respectively, with an 80-90% of confluence. Cells were washed with PBS and trypsinized. The concentration of cells was determined using a 1:2 dilutions with Trypan Blue and a hemocytometer. After cell count, the concentration was adjusted to have a 7.0-10.0×10^4 cells/mL. Approximately 100 μL of cells suspension, compounds, control positive and control negative were added in triplicates to a 96 well plate. Positive control used was doxorubicin, and the negative control was DMSO 0.1%. All compounds (4a-h) at 50, 25, 12.5, 6.3, and 1.6 μM were incubated with cells at 37° C. for 48 hrs. For fixation, cold TCA 50% was used and incubated at 4° C. for 1 h. Wells were washed and dried prior to tincture with 100 μL of SRB 0.4%. To remove excess of SRB, acetic acid was used. For analysis, TRIS-BASE Solution (pH=10.5) was used and shaken prior to reading using an ELISA reader at 540 nm and the software SoftMax Pro 4.8. For each compound, 50% growth inhibition (GI50) was calculated from Sigmoidal dose-response curves (variable-slope) that were generated with data obtained from experiments carried out in triplicates (GI50 values were generated with GraphPad Prism V. 6.02, GraphPad Software, Inc.)."}, "MDA-MB-231 [8]": {"test_system": "MDA-MB-231", "assay": "Initial screening, SRB assay GI50", "assay_type": "cell-based", "settings": "Homo sapiens, 48 hrs", "protocol": "as §8, §9"}, "MDA-MB-435 [9]": {"test_system": "MDA-MB-435", "assay": "Initial screening, SRB assay GI50", "assay_type": "cell-based", "settings": "Homo sapiens, 48 hrs, read-out: MDA-MB435 GI50", "protocol": "as §8, §9"}, "MDA-MB-468 [10]": {"test_system": "MDA-MB-468", "assay": "Cell viability assay (MTT)", "assay_type": "cell-based", "settings": "500 nM, 72 hours", "protocol": "as §5\nEqual number of cells were seeded in a 24 well plate and incubated with vehicle or compounds according to this disclosure at concentrations between 1 and 0.001 nM for 72 and 120 hrs. Using CellTiter 96 Non-Radioactive Cell Proliferation Assay (Promega, Corp.) according to manufactures' instructions, formazan was used as an indicator of viable cells at an absorbance 570 nm in a Tecan Microplate Reader M100. Data was calculated as fold change from vehicle and fitted using the 4′parameter logic nonlinear regression model in GraphPad Prism software. (n=3 biologic replicates: with 3 technical replicates each)."}, "MDA-MB-231 [11]": {"test_system": "MDA-MB-231", "assay": "Initial screening, inhibition of migration (wound gap)", "assay_type": "cell-based", "settings": "Homo sapiens", "protocol": "In addition, the inhibition of migration of MDA-MB-231 was determined via the following procedure:\nPrior to assays, cells were grown until 80-90% confluence was observed. We used a 75 cm^2 flask for 2.6×10^5 cells/mL in 10 mL and for a 25 cm^2 flask 1.44×10^5 cells/mL in 5 mL. The cells were washed with PBS to remove all traces of FBS. We added 2 mL for a 25 cm^2 flasks or 4 mL for a 75 cm^2 flasks trypsin, and incubated 5-10 min at 37° C. At the end of the incubation time, cells were re-suspended and counted with hemocytometer using 1:2 dilutions with Trypan blue. Subsequently, cell viability was calculated. In a 12 well tissue culture plate, we used the plastic pattern to draw a fine space with a fine marker on the bottom of the plate. Cells were seeded at 1.5-2.2×10^5 cells/mL in 1 mL and incubated for 24 h. Cells were then rinsed with PBS and incubated in starving media (0.5% FBS) overnight. All controls and drugs were tested in triplicate. The negative control for each drug was prepared according to the drug's DMSO concentration. […] The wound was made using a sterile pipette tip of 200 μL. Cells were then rinsed very gently with media without FBS and media with negative controls was added. After a 24 h incubation, the gap distance was evaluated using the software Lumera Infinity Analyze 6.4.0. Pictures were taken at 0, 8, 12 and 24 h using a 10× objective in an Inverted Laboratory Microscope Leica DM IL LED, and an Infinity1-3 3.1 Megapixel USB 2.0 camera CMOS. The percentage of migration was calculated using the following formula: […]"}, "MDA-MB-468 [12]": {"test_system": "MDA-MB-468", "assay": "Apoptosis assay, caspase 3/7 activity", "assay_type": "cell-based", "settings": "500 nM, 48 hours", "protocol": "as §6, §7"}}, "data": [{"smiles": "CCn1c2ccccc2c2cc(-n3nncc3-c3ccccc3)ccc21", "note": "(racemic) [MBQ-167, reference compound]", "values": [{"measurement": "inhibition at […]", "setting": "MDA-MB-231 [1]; MDA-MB-231, 250 nM for 48 hours (footnote a; title says 500 nM), read-out: % growth inhibition MDA-MB-231", "result": 36, "unit": "%"}, {"measurement": "cytotoxicity at […]", "setting": "MDA-MB-231 [1]; 250 nM, 48h, text prints MDA-MB-435 TNBC, read-out: inhibition of cell viability", "result": "~40", "unit": "%"}, {"measurement": "GI50", "setting": "Panc-1 [2]", "result": 155, "unit": "nM"}, {"measurement": "inhibition at 0.15 µM", "setting": "[3]; 150 nM", "result": 30, "unit": "%"}, {"measurement": "inhibition at […]", "setting": "[3]; 250 nM", "result": 30, "unit": "%"}, {"measurement": "inhibition at […]", "setting": "Panc-1 [4]; 250 nM", "result": 40, "unit": "%"}, {"measurement": "inhibition at 0.5 µM", "setting": "Panc-1 [4]; 500 nM", "result": 50, "unit": "%"}, {"measurement": "GI50", "setting": "MDA-MB-435 [5]; Homo sapiens, MDA-MB-435, 72 h, read-out: GI50 MDA-MB-435", "result": 145, "unit": "nM"}]}, {"smiles": "CCn1c2ccccc2c2cc(-n3nnc(C(O)c4cccnc4)c3-c3ccccc3)ccc21", "note": "(stereo not shown) [Compound 4b, (1-(9-ethyl-9H-carbazol-3-yl)-5-phenyl-1H-1,2,3-triazol-4-yl) (pyridin-3-yl) methanol]", "values": [{"measurement": "Caspase 3/7 activity compared to the vehicle, MDA-MB-231", "setting": "MDA-MB-231 [6]", "result": "increased apoptosis"}, {"measurement": "Caspase 3/7 activity compared to the vehicle, MDA-MB-435", "setting": "MDA-MB-435 [7]", "result": "increased apoptosis"}, {"measurement": "GI50", "setting": "MCF-7", "result": 40, "unit": "nM"}, {"measurement": "GI50", "setting": "MDA-MB-231 [8]", "result": 8000, "unit": "nM"}, {"measurement": "GI50", "setting": "MDA-MB-435 [9]", "result": 80, "unit": "nM"}, {"measurement": "effect on cell viability, MDA-MB-468", "setting": "MDA-MB-468 [10]", "result": "inhibited cell viability"}, {"measurement": "inhibition at 0.5 µM", "setting": "MDA-MB-231 [11]; at 0.5 μM, read-out: Inh. of migration (converted)", "result": 25.2, "unit": "%"}, {"measurement": "inhibition at 1.6 µM", "setting": "MDA-MB-231 [11]; at 1.6 μM, read-out: Inh. of migration", "result": "61.4 ± 9.08", "unit": "%"}, {"measurement": "Caspase 3/7 activity, MDA-MB-468", "setting": "MDA-MB-468 [12]", "result": "significantly increased"}, {"measurement": "effect on cell viability, MDA-MB-435", "setting": "MDA-MB-435 [5]; 500 nM", "result": "inhibited cell viability"}, {"measurement": "cytotoxicity at 0.5 µM", "setting": "MDA-MB-435 [5]; Homo sapiens, MDA-MB-435, 500 nM, 72 hours, read-out: decrease in cell viability, MDA-MB-435", "result": "~80", "unit": "%"}]}]}
